Experimental data as given in ChEMBL document CHEMBL3046244, “Efficient synthesis of piperazine-2,6-dione and 4-(1H-indole-2-carbonyl)piperazine-2,6-dione derivatives and their evaluation for anticancer activity” (2013).

Tests used:
Assay type in all cases: functional
HCT-15 = assay: Growth inhibition of Homo sapiens (human) HCT15 cells at 10 uM after 48 hr by SRB assay; conditions: HCT-15, 48 h, read-out: GI
HepG2 = assay: Growth inhibition of Homo sapiens (human) HepG2 cells at 10 uM after 48 hr by SRB assay; conditions: HepG2, 48 h, read-out: GI
T47D = assay: Growth inhibition of Homo sapiens (human) T47D cells at 10 uM after 48 hr by SRB assay; conditions: read-out: GI
PA-1 = assay: Growth inhibition of Homo sapiens (human) PA1 cells at 10 uM after 48 hr by SRB assay; conditions: PA-1, 48 h, read-out: GI
NCI-H522 = assay: Growth inhibition of Homo sapiens (human) NCI-H522 cells at 10 uM after 48 hr by SRB assay; conditions: NCI-H522, 48 h, read-out: GI

SMILES	inhibition of growth at 10 µM (HCT-15) [%]	inhibition of growth at 10 µM (HepG2) [%]	inhibition of growth at 10 µM (T47D) [%]	inhibition of growth at 10 µM (PA-1) [%]	inhibition of growth at 10 µM (NCI-H522) [%]
O=C(c1cc2ccccc2[nH]1)N1CC(=O)N(C2CCCCC2)C(=O)C1	30	25	7	40	6
O=C(c1cc2ccccc2[nH]1)N1CC(=O)N(CCCn2ccnc2)C(=O)C1	7	34	0	17	0
O=C(c1cc2ccccc2[nH]1)N1CC(=O)N(Cc2ccccn2)C(=O)C1	2	34	20	23	19
O=C(c1cc2ccccc2[nH]1)N1CC(=O)N(Cc2cccnc2)C(=O)C1	14	17	12	13	4
O=C(c1cc2ccccc2[nH]1)N1CC(=O)N(Cc2ccncc2)C(=O)C1	38	20	21	42	5
O=C(c1cc2ccccc2[nH]1)N1CC(=O)N(CCN2CCOCC2)C(=O)C1	7	3	16	18	8
O=C(c1cc2ccccc2[nH]1)N1CC(=O)N(Cc2cccs2)C(=O)C1	15	45	6	24	0
O=C(c1cc2ccccc2[nH]1)N1CC(=O)N(CCc2cccs2)C(=O)C1	4	19	9	11	14
O=C(c1cc2ccccc2[nH]1)N1CC(=O)N(Cc2ccco2)C(=O)C1	24	36	21	23	15
O=C(c1cc2ccccc2[nH]1)N1CC(=O)N(CCN2CCCC2)C(=O)C1	17	30	16	29	31
O=C1CCCN1CCCN1C(=O)CN(C(=O)c2cc3ccccc3[nH]2)CC1=O	27	11	14	8	8
O=C1CNCC(=O)N1C1CCCCC1	7	38	15	24	11
O=C1CNCC(=O)N1CCCn1ccnc1	32	13	8	23	8
O=C1CNCC(=O)N1Cc1ccccn1	1	31	16	17	8
O=C1CNCC(=O)N1Cc1cccnc1	20	21	8	20	4
O=C1CNCC(=O)N1Cc1ccncc1	33	25	4	27	8
O=C1CNCC(=O)N1CCN1CCOCC1	4	38	1	37	9
O=C1CNCC(=O)N1Cc1cccs1	4	29	8	18	15
O=C1CNCC(=O)N1CCc1cccs1	25	24	16	15	21
O=C1CNCC(=O)N1Cc1ccco1	30	21	4	26	7
O=C1CNCC(=O)N1CCN1CCCC1	49	18	1	26	0
O=C1CCCN1CCCN1C(=O)CNCC1=O	19	40	21	25	21
C[C@@H]1C[C@@H]([C@H](O)CC2CC(=O)NC(=O)C2)C(=O)[C@@H](C)C1 [CYCLOHEXIMIDE]	16	26	11	34	15
O=P1(N(CCCl)CCCl)NCCCO1 (stereo not given) [CYCLOPHOSPHAMIDE ANHYDROUS]	12	18	26	12	11
O=c1[nH]cc(F)c(=O)[nH]1 [FLUOROURACIL]	19	18	15	22	24
